Measurements taken from patent publication US20250059231A1, “Protease inhibitors” (priority 2021, published 2025).
Read-outs that look alike come from different tables or passages of the source. Where a SMILES comes first, the peptide text is derived from it. [ ]: non-standard residue; d: D form. The star is where a group is joined. Arachidoyl = CCCCCCCCCCCCCCCCCCCC(=O)*; Palmitoyl = CCCCCCCCCCCCCCCC(=O)*; hPhe = N[C@@H](CCc1ccccc1)C(=O)O; Phg = N[C@H](C(=O)O)c1ccccc1; Pip = O=C(O)[C@@H]1CCCCN1

Assays:
human Trypsin = human Trypsin (Homo sapiens, UniProt P07477); assay: Selectivity screening, human serine protease trypsin; type: biochemical; conditions: read-out: inhibition of human Trypsin
Method: (§1) By catalytic activity of the protease, the cleaved substrate results in increased fluorescence that can be monitored using a BMG Labtech Fluostar OPTIMA Microtiter fluorescence plate reader (excitation wavelength of 320 nm and a monitored emission wavelength of 405 nm). Dilutions were made starting from 10 mM stock solutions in DMSO and final concentrations were measured in triplicates. The inhibitors were preincubated for 15 min with DENV protease (100 nM) in the assay buffer (50 mM Tris-HCl pH 9.0, ethylene glycol (10% v/v), and 0.0016% Brij 58). The enzymatic reaction was initiated by the addition of the FRET substrate (final concentration 50 μM) to obtain a final assay volume of 100 μL per well. The enzymatic activity was monitored for 15 min and determined as a slope of relative fluorescence units per second (RFU/s) for each concentration. The mean of the triplicates were plotted against the corresponding concentration in CDDVault to determine the IC50-values. Analogous procedures were used to determine the inhibitory potency on WNV (Kühl et al., J. Med. Chem. 2020, 63 (15): 8179-8197) and ZIKA protease (Nitsche et al., ACS Med. Chem. Lett. 2019 Feb. 14; 10 (2): 168-174). For selectivity screening of active candidates, similar biochemical assays with human serine proteases trypsin (Weigel et al., J. Med. Chem. 2015, 58 (19), 7719-7733.) and/or thrombin (Nitsche et al., J. Med. Chem. 2013, 56 (21), 8389-8403) were used.

human Thrombin = human Thrombin (Homo sapiens, UniProt P00734); assay: Selectivity screening, human serine protease thrombin; type: biochemical; conditions: read-out: inhibition of human Thrombin
Method: as §1

WNV protease [1] = target: T1, WNV protease (West Nile virus, UniProt P06935); assay: WNV protease assay (analogous procedure); type: biochemical; conditions: for inhibition at 1 µM: read-out: inhibition of WNNV
T1 construct: a trypsin-like serine protease domain in the N-terminal region of the flaviviral NS3 proteins
T1 sequence (P06935 1424-1463): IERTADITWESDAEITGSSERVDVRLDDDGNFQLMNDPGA
T1 sequence (P06935 1502-1679): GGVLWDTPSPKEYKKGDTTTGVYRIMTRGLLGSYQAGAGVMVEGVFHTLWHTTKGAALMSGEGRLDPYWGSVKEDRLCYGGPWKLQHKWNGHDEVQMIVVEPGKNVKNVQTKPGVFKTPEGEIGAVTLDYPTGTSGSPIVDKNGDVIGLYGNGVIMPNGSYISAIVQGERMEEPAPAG
Method: as §1

DENV protease = target: T2, DENV protease (Dengue virus type 2, UniProt P29990); assay: biochemical; conditions: read-out: inhibition of DENV
T2 construct: The virus-encoded dengue protease comprises the amino-terminal 180 amino acids of NS3 (NS3pro) of the polyprotein
T2 sequence (P29990 1398-1437): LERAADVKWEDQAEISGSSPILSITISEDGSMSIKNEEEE
T2 sequence (P29990 1476-1653): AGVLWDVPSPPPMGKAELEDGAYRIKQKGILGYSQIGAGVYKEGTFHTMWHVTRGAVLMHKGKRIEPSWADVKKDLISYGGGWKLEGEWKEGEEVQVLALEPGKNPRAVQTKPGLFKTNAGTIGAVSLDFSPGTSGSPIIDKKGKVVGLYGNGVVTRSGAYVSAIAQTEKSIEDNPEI
Method: as §1, with “Dilutions” for “By catalytic activity of the protease, the cleaved substrate results in increased fluorescence that can be monitored using a BMG Labtech Fluostar OPTIMA Microtiter fluorescence plate reader (excitation wavelength of 320 nm and a monitored emission wavelength of 405 nm). Dilutions”

WNV protease [2] = target: T1, WNV protease; assay: WNV protease assay (analogous procedure); type: biochemical; conditions: read-out: IC50 for WNNV
ZIKA protease = target: T3, ZIKA protease (Zika virus, UniProt Q32ZE1); assay: biochemical; conditions: for inhibition at 50 µM / inhibition at 1 µM: read-out: inhibition of ZIKV
T3 construct: a trypsin-like serine protease domain in the N-terminal region of the flaviviral NS3 proteins
T3 sequence (Q32ZE1 1499-1676): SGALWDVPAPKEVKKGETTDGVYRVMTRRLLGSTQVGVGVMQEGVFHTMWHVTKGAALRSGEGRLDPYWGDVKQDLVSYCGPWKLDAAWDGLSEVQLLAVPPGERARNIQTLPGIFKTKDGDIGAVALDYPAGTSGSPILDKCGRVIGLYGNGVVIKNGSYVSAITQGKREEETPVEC
T3 sequence (Q32ZE1 1421-1460): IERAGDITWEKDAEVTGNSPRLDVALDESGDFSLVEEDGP
Method: as §1

SMILES | inhibition at 5 µM (human Thrombin; at 5 μM) [%] | inhibition at 50 µM (WNV protease [1]) [%] | inhibition at 50 µM (DENV protease) [%] | IC50 (WNV protease [2]) [µM] | also measured
CCCCCCCCCCCCCCCC(=O)N[C@@H](CCCCN)C(=O)N[C@@H](C)C(=O)N[C@@H](C)C(=O)N[C@@H](Cc1ccccc1)C(N)=O [compound 17] (Palmitoyl-KAAF-NH2) | < 5 | ≥ 25 | ≥ 25 | ≤ 40 | inhibition at 5 µM (human Trypsin; at 5 μM): < 10%; inhibition at 25 µM (human Trypsin; at 25 μM): < 20%
CCCCCCCCCCCCCCCC(=O)N[C@@H](CCCCN)C(=O)N[C@@H](C)C(=O)N[C@@H](CCCCN)C(=O)C(N)=O [compound 176] | < 5 | ≥ 25 | ≥ 25 | ≤ 40 | IC50 (ZIKA protease): ≤ 25 µM; inhibition at 50 µM (ZIKA protease): ≥ 65%
CCCCCCCCCCCCCCCC(=O)N[C@@H](CCCCN)C(=O)N[C@@H](C)C(=O)N[C@@H](CCCCN)B(O)O [compound 182] | – | ≥ 25 | ≥ 25 | ≤ 40 | –
CCCCCCCCCCCCCCCC(=O)N[C@@H](CCCCN)C(=O)N[C@@H](C)C(=O)N[C@@H](CCCCN)C(=O)N(C)C [compound 184] (Palmitoyl-Lys-Ala-Lys-NMe2) | – | ≥ 25 | ≥ 25 | – | –
CCCCCCCCCCCCCCCC(=O)N[C@@H](CCCNC(=N)N)C(=O)N[C@@H](CCC(N)=O)C(=O)N[C@@H](CCCCN)B(O)O [compound 41] | – | – | ≥ 25 | ≤ 40 | inhibition at 1 µM (DENV protease): ≥ 20%
CCCCCCCCCCCCCCCC(=O)N[C@@H](Cc1c[nH]c2ccccc12)C(=O)N[C@@H](C)C(=O)N[C@@H](C)C(=O)N[C@@H](Cc1c[nH]c2ccccc12)C(N)=O [compound 191] (Palmitoyl-WAAW-NH2) | – | ≥ 25 | – | – | –
CC(=O)N[C@@H](C)C(=O)N[C@@H](CCCNC(=N)N)C(=O)N[C@@H](CCC(N)=O)C(=O)N[C@@H](CCCCN)B(O)O [compound 48] | – | ≥ 25 | ≥ 25 | ≤ 40 | IC50 (ZIKA protease): ≤ 25 µM; inhibition at 1 µM (ZIKA protease): ≥ 10%; inhibition at 50 µM (ZIKA protease): ≥ 65%; inhibition at 1 µM (DENV protease): ≥ 20%
CCCCCCCCCCCCCCCC(=O)N[C@@H](CCCCN)C(=O)N[C@@H](C)C(=O)N[C@@H](CCCCN)C(=O)c1ccccc1 [compound 174] | – | ≥ 25 | ≥ 25 | ≤ 40 | inhibition at 5 µM (human Trypsin): < 10%; inhibition at 25 µM (human Trypsin): < 20%; inhibition at 5 µM (human Thrombin): < 5%
CCCCCCCCCCCCCCCC(=O)N[C@@H](CCCCN)C(=O)N[C@@H](C)C(=O)N[C@@H](C)C(=O)N[C@H](C=O)CCCCN [compound 180] (Palmitoyl-KAAK-aldehyde) | < 5 | ≥ 25 | ≥ 25 | ≤ 40 | –
CCCCCCCCCCCCCCCC(=O)N[C@@H](CCCCN)C(=O)N[C@@H](C)C(=O)N[C@@H](C)C(=O)N[C@@H](CCc1ccccc1)C(N)=O [compound 90] (Palmitoyl-KAA[hPhe]-NH2) | < 5 | ≥ 25 | ≥ 25 | ≤ 40 | inhibition at 5 µM (human Trypsin; at 5 μM): < 10%; inhibition at 25 µM (human Trypsin; at 25 μM): < 20%
CCCCCCCCCCCCCCCC(=O)N[C@H](CCCCN)C(=O)N[C@@H](C)C(=O)N[C@@H](Cc1ccccc1)C(N)=O [compound 190] (Palmitoyl-[dK]-Ala-Phe-NH2) | < 5 | ≥ 25 | ≥ 25 | ≤ 40 | inhibition at 5 µM (human Trypsin; at 5 μM): < 10%; inhibition at 25 µM (human Trypsin; at 25 μM): < 20%
CCCCCCCCCCCCCCCC(=O)N[C@@H](CCCCN)C(=O)N1CCCC[C@H]1C(=O)N[C@H](C(=O)N[C@@H](CCCCN)C(N)=O)c1ccccc1 [compound 16] (Palmitoyl-K[Pip][Phg]K-NH2) | < 5 | ≥ 25 | ≥ 25 | ≤ 40 | inhibition at 5 µM (human Trypsin; at 5 μM): < 10%; inhibition at 25 µM (human Trypsin; at 25 μM): < 20%
CCCCCCCCCCCCCCCC(=O)N[C@@H](CCCCN)C(=O)N[C@@H](C)C(=O)N[C@@H](CCCCN)C(=O)N(C)OC [compound 185] | – | ≥ 25 | ≥ 25 | – | –
CCCCCCCCCCCCCCCCCCCC(=O)N[C@@H](CCCCN)C(=O)N[C@@H](C)C(=O)N[C@@H](C)C(=O)N[C@H](CCCCN)C(N)=O [compound 132] (Arachidoyl-KAA[dK]-NH2) | < 5 | ≥ 25 | ≥ 25 | ≤ 40 | inhibition at 25 µM (human Trypsin; at 25 μM): < 20%; inhibition at 1 µM (WNV protease [1]): ≥ 10%; inhibition at 1 µM (DENV protease): ≥ 20%
CCCCCCCCCCCCCCCC(=O)N[C@H](CCCCN)C(=O)N[C@@H](C)C(=O)N[C@@H](C)C(=O)N[C@@H](Cc1ccccc1)C(N)=O [compound 193] (Palmitoyl-[dK]AAF-NH2) | – | ≥ 25 | ≥ 25 | ≤ 40 | –
CCCCCCCCCCCCCCCC(=O)N[C@@H](CCCCN)C(=O)N[C@@H](C)C(=O)N[C@H](C=O)CCCCN [compound 186] (Palmitoyl-Lys-Ala-Lys-aldehyde) | < 5 | ≥ 25 | ≥ 25 | ≤ 40 | inhibition at 1 µM (WNV protease [1]): ≥ 10%
CCCCCCCCCCCCCCCC(=O)N[C@@H](C)C(=O)N[C@@H](CCCNC(=N)N)C(=O)N[C@@H](CCC(N)=O)C(=O)N[C@@H](CCCCN)B(O)O [compound 39] | – | – | ≥ 25 | ≤ 40 | IC50 (ZIKA protease): ≤ 25 µM; inhibition at 1 µM (ZIKA protease): ≥ 10%; inhibition at 50 µM (ZIKA protease): ≥ 65%; inhibition at 1 µM (DENV protease): ≥ 20%
CCCCCCCCCCCCCCCC(=O)N[C@@H](CCCCN)C(=O)N1CCC[C@H]1C(=O)N[C@@H](C)C(=O)N[C@@H](CCCCN)C(N)=O [compound 156] (Palmitoyl-KPAK-NH2) | – | – | ≥ 25 | ≤ 40 | –
CCCCCCCCCCCCCCCC(=O)N[C@@H](CCCCN)C(=O)N[C@@H](C)C(=O)N[C@@H](C)C(=O)N[C@@H](CCCCN)C(O)O [compound 183] | – | ≥ 25 | ≥ 25 | ≤ 40 | –
CCCCCCCCCCCCCCCC(=O)N[C@@H](CCCCN)C(=O)N[C@@H](C)C(=O)N[C@@H](Cc1cnc[nH]1)C(N)=O [compound 167] (Palmitoyl-Lys-Ala-His-NH2) | < 5 | ≥ 25 | – | ≤ 40 | IC50 (ZIKA protease): ≤ 25 µM; inhibition at 1 µM (ZIKA protease): ≥ 10%; inhibition at 50 µM (ZIKA protease): ≥ 65%; inhibition at 1 µM (DENV protease): ≥ 20%
CCCCCCCCCCCCCCCC(=O)N[C@@H](CCCCN)C(=O)N1CCCC[C@H]1C(=O)N[C@@H](Cc1cnc[nH]1)C(=O)N[C@@H](CCCCN)C(N)=O [compound 14] (Palmitoyl-K[Pip]HK-NH2) | – | – | ≥ 25 | – | –
CCCCCCCCCCCCCCCC(=O)N[C@@H](CCCCN)C(=O)N[C@@H](C)C(=O)N[C@@H](Cc1cnc[nH]1)C(N)=O [compound 166] (Palmitoyl-Lys-Ala-His-NH2) | – | – | ≥ 25 | – | –
CCCCCCCCCCCCCCCC(=O)N[C@@H](CCCCN)C(=O)N[C@@H](C)C(=O)N[C@@H](C)C(=O)N[C@@H](CCc1c[nH]cn1)C(N)=O [compound 172] | – | – | ≥ 25 | – | inhibition at 1 µM (DENV protease): ≥ 20%
CCCCCCCCCCCCCCCC(=O)N[C@@H](CCCCN)C(=O)N[C@H](C)C(=O)N[C@@H](C)C(=O)N[C@@H](CCCCN)C(N)=O [compound 158] (Palmitoyl-K[dA]AK-NH2) | – | – | ≥ 25 | – | –
CCCCCCCCCCCCCCCC(=O)N[C@@H](CCCCN)C(=O)N[C@@H](C)C(=O)N[C@@H](Cc1ccccc1)C(N)=O [compound 192] (Palmitoyl-Lys-Ala-Phe-NH2) | – | ≥ 25 | ≥ 25 | – | –
